Measurements as given in EP0523873A1, “Non-substrate peptide inhibitors of farnesyl protein transferase” (MERCK & CO. INC., priority 1991, dated 1993).
Read-outs that look alike come from different tables or passages of the source. Square brackets hold non-standard residues; d marks the D form. Peptide text beside a SMILES is read from it. Phe(4-F) = N[C@@H](Cc1ccc(F)cc1)C(=O)O

Legend:
[1] = molecular target: T1, Farnesyl-protein transferase from bovine brain (partially purified) (Bos taurus, UniProt P29702+P49355); test: Inhibition of Ras farnesylation in vitro by tetrapeptides; type: biochemical
T1 construct: Farnesyl-protein transferase was prepared from bovine brain; from tissue; host or cells: bovine brain (cerebral lobes); Ras substrate expressed in E. coli
Procedure: (§1) Polyisoprenylation of Ras- [³H]Farnesyldiphosphate (FPP) (20 Ci/mmol) was purchased from New England Nuclear. Farnesyl-protein transferase activity assays were carried out as 30°C unless noted otherwise. […] After thermally pre-equilibrating the assay mixture in the absence of enzyme, reactions were initiated by the addition of farnesyl-protein transferase and stopped at timed intervals by the addition of 1 M HCl in ethanol (1 mL). The quenched reactions were allowed to stand for 15 minutes (to complete the precipitation process). After adding 2 mL of 100% ethanol, the reactions were vacuum-filtered through Whatman GF/C filters. Filters were washed four times with 2 mL aliquots of 100% ethanol, mixed with scintillation fluid (10 mL) and then counted in a Beckman LS3801 scintillation counter.
(§2) For inhibition studies, assays were run as described above, except putative inhibitors were added at the concentrations indicated. IC₅₀ values were determined with both farnesyl-protein transferase substrates at their KM concentrations.
Farnesyl-protein transferase was prepared from bovine brain. All purification steps were performed at 4°C. Cerebral lobes from bovine brains were homogenized in lysis buffer containing 50 mM. Tris-Cl, pH 8.0, 1 mM EGTA, 1 mM MgCl₂, 5 mM dithiothreitol, 10 µg/mL aprotinin, 0.5 mM phenylmethyl sulfonyl fluoride (PMSF), 2 µg/mL anitpain and 2 µg/mL leupeptin. Cellular debris and membranes were removed by centrifugation (10,000 g for 20 minutes followed by 100,000 g for 30 minutes). The supernatant was loaded directly onto a column (30 cm x 20 cm²) [formula] of DEAE-Sephacel that had been equilibrated with lysis buffer. The column was washed with the same buffer and proteins were eluted with a linear gradient of NaCL (0-500 mM, 1 L + 1 L) [formula] in the same buffer. Fractions (20 mL) were collected and those containing farnesyl-protein transferase activity were pooled. Each pool was then applied to an ω-Aminooctyl agarose column (30 cm x 4.9 cm²) [formula] and eluted with a linear gradient of NaCl (0-500 mM, 500 mL + 500 mL) [formula] in lysis buffer. Fractions containing farnesylprotein transferase were pooled. For most assays further partial purifiation was achieved by HPLC using a Mono Q H.R. 10/10 column and eluting farnesyl-protein transferase activity with a 0-0.3 M NaCl gradient over 85 minutes at 2 ml/min.
Farnesyl-protein transferase from bovine brain was chromatographed on DEAE-Sephacel (Pharmacia, 0-0.8 M NaCl gradient elution), N-octyl agarose (Sigma, 0-0.6 M NaCl gradient elution), and a Mono Q HPLC column (Pharmacia, 0.0.3M NaCl gradient). […] Data presented in the Table 2 are the average of 2-5 determinations. Single capital letter amino acid abbreviations are used above.

[2] = test system: partially pure bovine brain farnesyl-protein transferase; test: Tetrapeptides tested as farnesylation substrates with [3H]FPP (TLC / autoradiography); type: biochemical; details: peptide 200 µM, 0.5 µM [3H]-FPP, 30 minutes at 30°C
From the text: (§3) When a peptide was used as the acceptor substrate, there were two changes to the assay: (1) Ras protein was excluded and, (2) the reactions were stopped by the addition of one tenth volume of 0.5 M EDTA. A portion of the reaction mixture was spotted onto a TLC plate (silica gel 60 thin layer chromatography plates (20 cm x 20 cm, 0.25 mm layer thickness) [formula] were from E. Merck (Darrnstadt)) and eluted with either ethyl acetate:pyridine:acetic acid:water (10:5:1:3) or n-propanol:water (7:3) elution systems. After drying under vacuum, the plates were sprayed with En³Hance and exposed to X-ray film at -70°C.
CAAX tetrapeptides and other tetrapeptides including Cys-Xaa¹-Xaa²-Xaa³ were tested as farnesylation substrates using [³H]FPP and partially pure bovine brain farnesyl-protein transferase.
The indicated peptides at 200 µM were incubated with partially pure bovine farnesyl-protein transferase and 0.5 µM [3H]-FPP for 30 minutes at 30°C. Autoradiographic exposure time was overnight (15-20 hours).

[3] = molecular target: farnesyl-protein transferase (bovine brain) (Bos taurus, UniProt P29702+P49355); details: read-out: KM for FPP; 30°C, 50 mM HEPES, pH 7.5, 5 mM MgCl2, 5 mM dithiothreitol
Procedure: as §1, §2
Farnesyl-protein transferase was prepared from bovine brain. All purification steps were performed at 4°C. Cerebral lobes from bovine brains were homogenized in lysis buffer containing 50 mM. Tris-Cl, pH 8.0, 1 mM EGTA, 1 mM MgCl₂, 5 mM dithiothreitol, 10 µg/mL aprotinin, 0.5 mM phenylmethyl sulfonyl fluoride (PMSF), 2 µg/mL anitpain and 2 µg/mL leupeptin. […]

[4] = test system: farnesyl-protein transferase; test: Tetrapeptides tested as farnesylation substrates ([3H]FPP, TLC and autoradiography); type: biochemical; details: [³H]FPP, partially pure bovine brain farnesyl-protein transferase, TLC, autoradiography
From the text: as §3
CAAX tetrapeptides and other tetrapeptides including Cys-Xaa¹-Xaa²-Xaa³ were tested as farnesylation substrates using [³H]FPP and partially pure bovine brain farnesyl-protein transferase. […] Thin layer chromatography (TLC) conditions were developed which resolved the substrates farnesyl diphosphate (Rf = 0.06) [formula] and CVLS (Rf = 0.28) [formula] and product S-farnesyl-CVLS (Rf = 0.58) [formula] . These Rf values reflect TLC conditions using ethylacetate: pyridine:acetic acid:water (10:5:1:3) as the elutent. […] Control peptides having a Cys to Ser substitution were not substrates. […]

[5] = test system: farnesyl-protein transferase; test: Mechanism of inhibition using homogenous, pure farnesyl-protein transferase; type: biochemical, bovine
Procedure: To prepare pure enzyme, the […], […], was covalently bound to Affigel-10 under anhydrous conditions as described by the manufacture (15 µmol peptide per 1 mL of Affigel-10). Unreacted resin was treated with ethanolamine. After multiple passes of ω-aminooctyl-agarose-column-purified protein over the peptide column, the column was washed and eluted as described by Reiss, et al., (1990) ibid, to recover farnesyl-protein transferase activity.
To further verify that Cys-Xaa¹-Xaa²-Xaa³ were interacting with the active site of farnesyl-protein transfer, CIFM (SEQ ID NO: 2) was evaluated for its mechanism of inhibition using homogenous, pure farnesyl-protein transferase.

[6] = test system: farnesyl-protein transferase; details: earlier findings (Schaber et al., ibid); cited from earlier work
[7] = Ras-CVLS at 3.5 µM, 0.25 µM [3H]FPP (both substrates at KM), average of 2-5 determinations, read-out: IC50

Compound | IC50 [1, 7] [nM] | Farnesylation Substrate [2] | also measured
CC[C@H](C)[C@H](NC(=O)[C@H](C)NC(=O)[C@@H](N)CS)C(=O)N[C@@H](CCSC)C(=O)O [CAIM] (H-CAIM-OH) | 200 | + (+ > 90% [3H] farnesyl diphosphate converted to [3H] farnesyl tetrapeptide) | 
CC[C@H](C)[C@H](NC(=O)[C@@H](NC(=O)[C@@H](N)CS)C(C)C)C(=O)N[C@@H](CCSC)C(=O)O [CVIM] (H-CVIM-OH) |  | + (+ > 90% [3H] farnesyl diphosphate converted to [3H] farnesyl tetrapeptide) | IC50 [1]: 100 nM
CC(C)=CCC/C(C)=C/CC/C(C)=C/CO[P@@](=O)(O)OP(=O)(O)O (stereo in doubt) [FPP, farnesyl diphosphate] |  |  | Km [3]: 0.25 µM
CC[C@H](C)[C@H](NC(=O)[C@@H](N)CS)C(=O)N[C@@H](Cc1ccccc1)C(=O)N[C@@H](CCC(N)=O)C(=O)O [CIFQ, Cys-Ile-Phe-Gln] (H-CIFQ-OH) | 23 | - (- < 1% conversion) | 
CC[C@H](C)[C@H](NC(=O)[C@H](C)NC(=O)[C@@H](N)CS)C(=O)N[C@@H](CO)C(=O)O [CAIS] (H-CAIS-OH) | 1000 | + (+ > 90% [3H] farnesyl diphosphate converted to [3H] farnesyl tetrapeptide) | 
CC(C)C[C@H](NC(=O)[C@@H](NC(=O)[C@@H](N)CO)C(C)C)C(=O)N[C@@H](CO)C(=O)O [SVLS] (H-SVLS-OH) |  | - (- < 1% conversion) | 
CC[C@H](C)[C@H](NC(=O)[C@H](Cc1ccc(O)cc1)NC(=O)[C@@H](N)CS)C(=O)N[C@@H](CCSC)C(=O)O [CYIM] (H-CYIM-OH) | 100 | + (+ > 90% [3H] farnesyl diphosphate converted to [3H] farnesyl tetrapeptide) | 
CC[C@H](C)[C@H](NC(=O)[C@@H](N)CS)C(=O)N[C@@H](Cc1ccccc1)C(=O)N[C@@H](CCSC)C(=O)O [CIFM, Cys-Ile-Phe-Met] (H-CIFM-OH) | 10 | - (- < 1% conversion) | farnesylation substrate activity [4]: do not serve as effective substrates; mechanism of inhibition with respect to Ras protein substrate [5]: competitive inhibitor; mechanism of inhibition with respect to farnesyl diphosphate [5]: not a competitive inhibitor
SSGCVLS [heptapeptide SSGCVLS, earlier found to serve as a substrate for isoprenylation] |  |  | substrate for isoprenylation [6]: served as a substrate for isoprenylation

More lines, main results first:

IC50 [1, 7] [nM] | Farnesylation Substrate [2] | Compound | also measured
 | - (- < 1% conversion) | CSCC[C@H](NC(=O)[C@H](Cc1ccccc1)NC(=O)[C@@H](NC(=O)[C@@H](N)CS)C(C)C)C(=O)O [CVFM, Cys-Val-Phe-Met] | 
10 | - (- < 1% conversion) | CC[C@H](C)[C@H](NC(=O)[C@@H](N)CS)C(=O)N[C@@H](Cc1ccc(F)cc1)C(=O)N[C@@H](CCSC)C(=O)O [CI(p-fluoro-F)M] (H-CI[Phe(4-F)]M-OH) | 
